Test results as given in patent publication US5814612A, “Retinol derivatives and uses thereof” (priority 1992, dated 1998).
Where two headings read alike, the source gives them in different places.

Key:
CD4^+ T lymphocytes = assay: Proliferation of anti-CD3 activated CD4+ T lymphocytes; assay type: cell-based, BALB/c mouse
Excerpt: (§1) Growth curves of lymph node T cells depleted of antigen-presenting cells (FIG. 17A) with and without 10^-6 M retinol at 2×10^5 and 5×10^4 cells/well. (FIG. 17B) Dose-responses elicited by different retinoids in cultures of lymph node T cells depleted of antigen-presenting cells. Also shown are the growth curves of CD4^+ (FIG. 17C) and CD8^+ T lymphocytes (FIG. 17D) in the presence of either retinol, 14HRR, human serum or in their absence.
(§2) T lymphocytes, purified as described, 5×10^4 /well, were activated with immobilized anti-CD3 antibody in ITLB medium. The indicated amounts of retinoids or human serum were added at initiation of cultures. […] 14HRR was added every 12 hours. DNA synthesis was measured by a 4 hour pulse with tritiated thymidine. SDs were ≤17%.
(§3) Mature T cells were obtained from pooled intestinal, axillary, inguinal and submandibular lymph nodes of 4 to 10-week-old BALB/c mice. To fractionate cells into CD4 and CD8 subsets and at the same time remove APC, a combination of adherence and complement lysis was used as follows:
(§4) The cell suspension in a volume of 2 ml was applied to a nylon wool column (40) (0.6 g of washed nylon fibers in the barrel of a 10 ml syringe) and incubated at 37° C. for 40 min. […] The success of the enrichment procedures was monitored cytofluorimetrically using FITC-conjugated anti-CD8 and PE-conjugated anti-CD4. […]

5/2 cells = assay: B-cell growth assay ([3H]-thymidine uptake), lymphoblastoid 5/2 cells in serum-free HB101 medium; assay type: cell-based, human
Experimental: Washed 5/2 cells (5,000/well) were incubated for 72 hours in HB101 medium with the indicated amounts of retinoids. DNA synthesis was measured by [^3 H] thymidine uptake. The measurements were done in triplicate. The SDs were <15%.
In FIGS. 4B to 4D, 5/2 cells were washed twice and seeded at a concentration of 150,000 cells/ml in HB 101 medium. Triplicate samples of 100 μl of cell suspension were removed daily and pulsed for 6 hours with [^3 H] thymidine. Means are shown. The SDs were never >20%.
P3 was purified as described in the Experimental Details section. 5/2 cells (5,000/well) were incubated for 72 hours in HB101 medium and refed with the indicated amount of retinoid daily. DNA synthesis was measured by [^3 H]-thymidine uptake. P3 is bioactive down to a concentration of 10-^8 M (FIG. 8). […] This is due either to chemical instability or to a more rapid metabolic degradation of P3 by the cells.
The human EBV-transformed B-cell line 5/2 was established from the peripheral blood of a healthy donor. The cell line was grown in RPMI 1640 supplemented with 8% fetal calf serum, L-glutamine (2 mM), and antibiotics. The cell line was tested regularly for mycoplasma infections and was consistently negative.
The assay system is a modification of the assay developed by Blazar et al. (12). […] Assays were done in 96 well microtiter plates in a final volume of 200 μl/well or in 25 cm^2 tissue culture flasks. The cells in the microtiter plates were cultured for 72 hours and cell growth was determined by labeling for the last 16 hours with 0.8 μCi/well of [^3 H]thymidine (sp. act. 6.7 Ci/mmol). Growth in the culture flasks was determined in three aliquots of 100 μl taken at 24 hours intervals and cultured in the presence of 0.8 μCi of [^3 H]thymidine for an additional 6 hour period. To determine the viable cell number, nine aliquots per time point were differentially counted in a Neubauer chamber in the presence of trypan blue.

lymph node T cells = assay: Proliferation of anti-CD3 activated lymph node T cells; assay type: cell-based, BALB/c mouse
Excerpt: as §1, §2, §3, §4
Cells were cultured in serum-free medium, referred to as ITLB, containing RPMI 1640 supplemented with 8×10^-7 M insulin (5 μg/ml), 7×10^-8 M transferrin (5 μg/ml), 2×10^-6 M linoleic acid, 2×10^-6 M delipidated BSA (0.12 mg/ml), 2 mM L-glutamine, 1 mM sodium pyruvate and antibiotics. […] The optimal concentration for stimulation of T cells was determined for each batch of anti-CD3 mAb and Con A. The optimal range of Con A was particularly narrow in serum-free medium (0.5-0.2 μg/ml) and varied with the cell density used. […] Cellular proliferation was determined by [^3 H] thymidine uptake (0.5 uCi/well; New England Nuclear, Boston, Mass.) after the incubation times indicated for each experiment with a 4 hour labeling pulse. […]

[1] = system: activated human thymocytes; conditions: cited from earlier work
[2] = system: lymphoblastoid cells (LCL); conditions: cited from earlier work
Hela = assay: Retinol metabolism, Hela; assay type: in vitro ADME, human
Experimental: (§5) Legend: 2.5×10^6 cells were grown overnight in 5 ml RPMI/10% FBS. The FBS was preincubated at room temperature with 14.4 uCi [^3 H] retinol (NEN) for 4h. The cell pellet was washed twice with PBS. The retinoid were extracted according to MClean et al. 90 and separated on an analytical c18 reverse phase column according to FIG. 7. The DPM were determined using an on-line scintillation counter.

Raji = assay: Retinol metabolism, Raji; assay type: in vitro ADME, human
Experimental: as §5

[3] = cited from earlier work

For `CC(C=CC=C(C)C(O)CO)=CC=C1C(C)=CCCC1(C)C` (stereo not drawn) [14HRR, 14-hydroxy-4,14-retro-retinol], the “response of CD4+ subset to anti-CD3” value (CD4^+ T lymphocytes) was “responded to the activating signal”, the “growth of 5/2 cells” value (5/2 cells) was “active and capable of replacing retinol” and the minimal effective concentration (5/2 cells; Homo sapiens, B-cell, 72 hours, refed daily, read-out: lowest bioactive concentration (bioactive down to)) was 0.01 µM. For the same compound, the “stimulation of lymph node T cells” value (lymph node T cells) was “effective over the same dose range as observed for thymocytes”.
For `CC1=C(/C=C/C(C)=C/C=C/C(C)=C/C(=O)O)C(C)(C)CCC1` [all-trans retinoic acid], the “support of growth of activated human thymocytes” value [1] is given as “The same is true for activated human thymocytes”, the “support of growth of LCL in serum-free medium” value [2] is given as “but not retinoic acid, support the growth of LCL in serum-free medium” and the “stimulation of lymph node T cells” value (lymph node T cells) is given as “nearly inert”.
In the case of `CC1=C(/C=C/C(C)=C/C=C/C(C)=C/CO)C(C)(C)CCC1` [retinol, all-trans retinol], the “Ester (% of taken up retinol)” value (Hela) is reported as 20%, the “P3 (% of taken up retinol)” value (Hela) is reported as 3% and the Total cts. (Hela) is reported as 1.0 × 10^5 cts. The “Ester (% of taken up retinol)” value (Raji; 4°) was 0%, the “P3 (% of taken up retinol)” value (Raji; 4°) was 0% and the Total cts. (Raji; 4°) was 2.5 × 10^5 cts. For the same compound, the “Ester (% of taken up retinol)” value (Raji; 37°) was 14%, the “P3 (% of taken up retinol)” value (Raji; 37°) was 3% and the Total cts. (Raji; 37°) was 4.0 × 10^5 cts. The “support of growth of activated human thymocytes” value [1] was “The same is true for activated human thymocytes”, the “support of growth of LCL in serum-free medium” value [2] was “support the growth of LCL in serum-free medium” and the half-life ([3]; serum-free cell culture (ref. 32)) was < 24 h. The half-life ([3]; serum-free tissue culture medium, estimated (ref. 32)) was ~24 h and the “growth of 5/2 cells” value (5/2 cells) was “enable 5/2 cells to grow”.
